Results from patent US7169891B2, “Human pellino polypeptides” (Immunex Corporation, priority 2000, dated 2007).
Residues, ends and D or L forms follow the SMILES beside them. *: point of attachment. Cbz = O=C(OCc1ccccc1)*; CH2F = FC*

Tests used:
[1] = test system: Pellino-1 Cleavage and Relocation; test: Effect of protease and other inhibitors on PMA-induced Pellino-1 cleavage and relocation in COS7 cells; assay type: cell-based, monkey; conditions: COS7 cells treated with PMA
Method: In an effort to determine which protease might be involved in the regulation of Pellino-1 cleavage, COS7 cells transfected with a Pellino-1-expressing construct were treated with PMA together with inhibitors of different classes of proteinases as shown in Table 3 below.

Pellino-1 = test: Effect of cell stimulation on Pellino-1 localization and cleavage in transfected COS-7 cells; assay type: cell-based, monkey; conditions: for Effect of growth factor incubation on Pellino-1 (cleavage and redistribution): Pellino-1-transfected cells, concentration not given
Method: This example describes the effect of stimulation of COS-7 cells transfected with an expression vector encoding FLAG-Pellino-1 with IL-1 or other molecules. Transfected cells are prepared substantially as described above. […] As Drosophila Pellino was identified by its ability to associate with Pelle, experiments in which Pellino is coexpressed with IRAK have been performed to determine if mammalian Pellino interacted with IRAK, the presumptive mammalian counterpart of Pelle.
To determine if the observed redistribution and proteolytic processing of Pellino-1 specifically required IRAK, Pellino-1-transfected cells were stimulated with agents that activate NF-kB by IRAK-independent pathways such as phorbol myristate acetate (PMA, 100 ng/ml), which is known to promote many of the same intracellular signals as IL-1, and TNF-alpha (20 ng/ml). TNF-alpha activates NF-kB through a mechanism involving the adaptor protein TRADD, the kinase RIP, and TRAF2, while PMA stimulates the activity of protein kinase C which is known to cross-talk with the NF-kB pathway. […] In both cases, 2 to 3 hours of exposure to the stimulus was required before significant Pellino cleavage was seen. The total amount of detectable Pellino-1 polypeptide (the sum of soluble and insoluble fractions) was increased in the presence of PMA or TNF-alpha, which presumably reflects a change in the net rates of Pellino-1 synthesis and/or degradation. […] EGF has been reported in some cells to activate NF-kB through the induction of IkB-alpha degradation.

[2] = test system: NF-kB-dependent reporter gene; test: NF-kB-dependent reporter gene (luciferase) assay in transfected COS cells; assay type: cell-based, monkey
Text: (§1) The murine Pellino-1 coding sequence DNA was fused, in frame at the 3′ end, to DNA encoding the FLAG epitope, followed by an in-frame stop codon. This construct was cloned into the mammalian expression vector pDC304 (identical to pDC302, described in U.S. Pat. No. 5,599,905, issued Feb. 4, 1997, except that the early splice region, consisting of splice donor and acceptor sites of the SV40 viral element, has been removed); and transfected into an IL-1-responsive line of COS-7 cells by the DEAE-dextran method.
In order to assay the effect of the Pellino-1-FLAG polypeptide and other forms of Pellino polypeptides on reporter gene activity, a method essentially as described in Born et al., 1998, J. Biol. Cheni. 273: 29445–29450 (which is incorporated by reference herein) can be used. As one example of this method, Cos7 cells were transiently transfected by the DEAE-dextran method as described (Cosman et al., 1984, Nature 312: 768–771, which is incorporated by reference herein), using 150 ng of the Pellino polypeptide expression construct and 700 ng of the reporter plasmid per 45,000 cells. Two days post-transfection, cells were stimulated with 10 ng/ml IL-1 or 40 ng/ml IL-18 (PeproTech, Inc.) for 4 hours. Cells were lysed and luciferase activity assessed using Reporter Lysis Buffer and Luciferase Assay Reagent (Promega Corp.). IL-8 promoter-reporter and NFkB-dependent reporter constructs may be used as reporter plasmids. Alternatively, the effect of Pellino polypeptide expression may be assayed in COS-1 cells. In an alternative preferred method, COS7 cells were grown in 12-well dishes as described above. The cells were transiently transfected with Pellino test plasmid, 50 ng of reporter plasmid DNA, and empty vector, as required, to a total of 1 micrograms of total DNA per well. After 24 hours, stimulating agents were added in a small amount (less than 0.5% final volume) of medium or dimethyl sulfoxide, and the cells were re-incubated for 5 hours. Cells were lysed in luciferase Reporter Lysis Buffer (Promega, Madison Wis., 0.25 ml per well) and luciferase activity was measured in a EG & G/Berthold luminometer after addition of Luciferase Assay Reagent (Promega) according to the supplier's instructions. All results were normalized to total protein content of the lysates as measured using the micro-BCA assay (Pierce, Rockford, Ill).

[3] = test system: Jun N-terminal kinase, p38 kinase, and ERK signaling; test: Jun N-terminal kinase, p38 kinase and ERK signaling mediated by IL-1; assay type: cell-based
[4] = test system: IL-8 promoter-reporter gene; test: IL-8 promoter-reporter gene assay in transfected COS cells; assay type: cell-based, monkey; conditions: COS-1 cells; presence and absence of TNF-alpha; compared to vector-only control
Text: as §1
In order to assay the effect of the Pellino-1-FLAG polypeptide and other forms of Pellino polypeptides on reporter gene activity, a method essentially as described in Born et al., 1998, J. Biol. Cheni. 273: 29445–29450 (which is incorporated by reference herein) can be used. […] Cells were lysed and luciferase activity assessed using Reporter Lysis Buffer and Luciferase Assay Reagent (Promega Corp.). […] Cells were lysed in luciferase Reporter Lysis Buffer (Promega, Madison Wis., 0.25 ml per well) and luciferase activity was measured in a EG & G/Berthold luminometer after addition of Luciferase Assay Reagent (Promega) according to the supplier's instructions. All results were normalized to total protein content of the lysates as measured using the micro-BCA assay (Pierce, Rockford, Ill).

## CC(C)C[C@@H](C=O)NC(=O)[C@H](CC(C)C)NC(=O)[C@H](CC(C)C)NC(=O)OCc1ccccc1 [MG132] (Cbz-Leu-Leu-Leu-aldehyde)
[1]; inhibitor 10 microM
  Effect on Pellino-1 Cleavage and Relocation: none

## Cc1ccc(S(=O)(=O)N[C@@H](Cc2ccccc2)C(=O)CCl)cc1 [TPCK]
[1]; inhibitor 20 microM
  Effect on Pellino-1 Cleavage and Relocation: inhibition

## COC(=O)CC[C@H](NC(=O)[C@H](CC(=O)OC)NC(=O)OCc1ccccc1)C(=O)N[C@H](C(=O)N[C@@H](CC(=O)OC)C(=O)CF)C(C)C [Z-DEVD-FMK]
[1]; inhibitor 20 microM
  Effect on Pellino-1 Cleavage and Relocation: none

## COC(=O)C[C@H](NC(=O)[C@H](C)NC(=O)[C@@H](NC(=O)OCc1ccccc1)C(C)C)C(=O)CF [Z-VAD-FMK] (Cbz-Val-Ala-Asp(OMe)-CH2F)
[1]; inhibitor 20 microM
  Effect on Pellino-1 Cleavage and Relocation: none

## TNF-alpha
Pellino-1; TNF-alpha 20 ng/ml, time-course experiments
  Time after induction at which cleavage and relocation of Pellino-1 began: about three

## basic fibroblast growth factor: growth factor
Pellino-1
  Effect of growth factor incubation on Pellino-1 (cleavage and redistribution): little or no effect

## epidermal growth factor
Pellino-1
  Effect of growth factor incubation on Pellino-1 (cleavage and redistribution): very weakly active

## platelet-derived growth factor
Pellino-1
  Effect of growth factor incubation on Pellino-1 (cleavage and redistribution): little or no effect

## transforming growth factor-beta
Pellino-1
  Effect of growth factor incubation on Pellino-1 (cleavage and redistribution): little or no effect

B1: wild-type-FLAG: unaltered murine Pellino-1 (SEQ ID NO:2) fused to the FLAG epitope (protein, listed as Mus musculus)
chain: MFSPDQENHPSKAPVKYGELIVLGYNGSLPNGDRGRRKSRFALFKRPKANGVKPSTVHIACTPQAAKAISNKDQHSISYTLSRAQTVVVEYTHDSNTDMFQIGRSTESPIDFVVTDTVPGSQSNSDTQSVQSTISRFACRIICERSPPFTARIYAAGFDSSKNIFLGEKAAKWKTSDGQMDGLTTNGVLVMHPRNGFTEDSKPGIWREISVCGNVFSLRETRSAQQRGKMVEIETNQLQDGSLIDLCGATLLWRTAEGLSHTPTVKHLEALRQEINAARPQCPVGFNTLAFPSMKRKDVVDEKQPWVYLNCGHVHGYHNWGNKEERDGKDRECPMCRSVGPYVPLWLGCEAGFYVDAGPPTHAFSPCGHVCSEKTTAYWSQIPLPHGTHTFHAACPFCAHQLAGEQGYIRLIFQGPLD
modifications: FLAG tag
[2]; NF-kB-dependent reporter gene activity, form of murine Pellino-1 expressed in COS cells
  Effect on Reporter Gene: Stimulatory
[2]; preliminary experiment, COS-7 cells
  IL-1-induced NFkB-dependent reporter gene activity: partially inhibit
[3]
  Jun N-terminal kinase, p38 kinase, and ERK signaling mediated by IL-1: moderately augmented

B2: wild-type Pellino-1: wild-type Pellino-1 polypeptide expressed in COS cells; murine sequence SEQ ID NO:2 (protein, listed as Mus musculus)
chain: B1 chain
[2]; COS cells transfected with high concentrations of expressing construct
  NFkB-dependent reporter gene activity: inhibitory effect
[4]
  IL-8 promoter-reporter gene activity: stimulates
